Experimental data from patent US9988445B2, “Method of treatment of pain by administration of a CCL17 specific antibody” (The University of Melbourne, priority 2013, dated 2018).
Entries after “also recorded” stand apart in the source; their conditions may differ.

Key:
mice [1] = test: GM-CSF given intraplantarly, pain development (Incapacitance Tester); type: in vivo; conditions: GM-CSF 20 ng i.pl., four hours, vs. saline
Experimental: Mice were treated with a monoclonal antibody (mAb) to CCL17 (300 μg) or with an isotype control mAb (300 μg) at the same time as being given GM-CSF and pain was measured at four hours later.
(§1) An Incapacitance Tester (Dual Weight Averager) is used to automatically and reproducibly assess the analgesic potency by measuring the weight distribution on the two hind paws.
(§2) Weight placed on each hind limb was measured over a 3 second period. 3 separate measurements taken per mouse for each time point then averaged. Results are expressed as injected limb/control limb×100. Thus a value of 100 means that equal weight is being placed on the right and the left limb. A value below 100 means less weight is being placed on the injected limb (left) compared with the control limb (right).

mice [2] = test: CCL17 given intraplantarly, pain development (Incapacitance Tester); type: in vivo; conditions: CCL17 50 ng i.pl., 6 hours, p<0.05 vs. saline
Experimental: as §1, §2
Pain is identified as a decrease in the ratio of weight distribution between the CCL17-injected and saline-injected paw where a percentage of less than 95 indicates pain development (see Example 1 above). Thus, CCL17 can induce pain.

| Molecule | pain development after i.pl. injection in the footpad (mice [1]) | pain development (ratio of weight distribution between CCL17-injected and saline-injected paw; less than 95 indicates pain) (mice [2]) |
| --- | --- | --- |
| GM-CSF: proinflammatory cytokine GM-CSF | develop pain | – |
| CCL17: chemokine (C-C motif)17, also known as thymus- and activation-regulated chemokine (protein, UniProt Q92583 24-94, looked up) C-C motif chemokine 17: ARGTNVGRECCLEYFKGAIPLRKLKTWYQTSEDCSRDAIVFVTVQGRAICSDPNNKRVKNAVKYLQSLERS | – | develop pain; also recorded: induces pain |
